# Test results as given in US9586994B2, “CD44V6-derived peptides for treating breast cancer” (KARLSRUHER INSTITUT FÜR TECHNOLOGIE, priority 2012, dated 2017).
# No end group written: not given here. MeO‑PEG‑COOH = methoxy-PEG carboxylic acid, 750 or 2000 Da
# Experiments:
# CD44v6 [1] = assay: HGF-induced Met/Erk activation in BSp73ASs6 cells with DY681-labeled peptides; type: cell-based, rat; conditions: FIG. 18A right side, activation of Erk determined
# Experimental: (§1) Serum-starved cells (24 hours) were induced with the growth factor HGF (10 ng/mL) at 37° C. for 5 minutes. Where indicated, the cells were treated with peptides (100 ng/ml) prior to induction at 37° C. for 10 minutes (100 ng/mL CD44v6 peptide or control peptide). Following the induction with HGF, cells were washed with ice-cold phosphate-buffered saline (PBS). To detect activated Met and ERK, cells were lysed in sodium dodecyl sulfate (SDS)—sample buffer containing 100 mM dithiothreitol (DTT), boiled and subjected to western blot analysis using antibodies against phospho-Met and ERK. The loading controls were performed on the same blot after stripping (62.5 mM Tris, pH 6.8, 2% SDS, 0.8% DTT) by probing with the Met respectively Erk antibody. Blots were stained using the enhanced chemiluminescence system (Thermo Fisher Scientific, Schwerte, Germany). Bands in western blot analysis were quantified with the program Image J (National Institutes of Health).
# In order to test the specificity of the binding of CD44v6 peptides to the tumor site and to the metastases and to estimate the binding kinetics in vivo, near infrared fluorescence (NIRF) imaging with the Optix MX2 was. For this purpose two CD44v6 peptides were labeled with the fluorophore DY681: a rat specific one, rv6 pep Dy681 and a mouse specific one, mv6 pep Dy681, as a control.
# BSp73ASs6 cells [2] = assay: Staining of fixed BSp73ASs6 cells with DY681-labeled peptides (confocal microscopy); type: binding, rat; conditions: 1 hour with DY681-labeled peptide
# Experimental: (§2) ASs6 or L3.6pl cells were seeded at 5,000 cells/well of a Lab-TekR Chamber Slide™ (Nunc, Napierville, Ill., USA). On the following day the cells were washed with cold PBS and fixed with 4% Formalin for 30 min at RT. Unspecific binding was blocked with 1% BSA in PBS for 1 hour at RT. The cells were incubated for 1 hour with the DY681-labeled peptides. After three washing steps with PBS the cover slips were mounted with Fluorescence Mounting Medium (Dako, Glostrup, Denmark) and the immunofluorescence was measured by a laser scanning confocal microscope Leica TCS2 SP2 (Exton, Pa., USA) and processed using Leica confocal software. A 20× objective was used for imaging.
# BSp73ASs6 tumors = conditions: rat
# Text: To avoid autofluorescence of fur, rats were shaved around the tumor prior to imaging. Subsequently, animals were anesthetized using 2% isoflurane and gently fixed on the devices' heated plate for the entire time of data acquisition. To reduce fluorescence background, rats were fed with chlorophyll-reduced food (Provimi Kliba AG, Kaiseraugst, Switzerland) for one week prior NIRF imaging. All in vivo analyses were preceded by native scans of animals without any injection of the fluorescent probe. For in vivo analysis, rats were injected with 200 μg DY681-labeled rat v6 11 mer peptide or the human v6 11 mer peptide via the tail vein. Controls were injected with the equal amount of DY681-labeled mouse v6 11mer peptide. […] All peptides were labeled with the fluorescent dye DY681. Data were acquired at the indicated time after injection of the peptides. […]
# DY681 fluorescence was measured using excitation at 670 nm in combination with a 700 nm long-pass emission filter. […] Data sets were analyzed with OptiView (ART).
# For in vivo experiments, BSp73ASs6 cells were injected subcutaneously into syngeneic rats. […] The accumulation of the fluorescence was measured in the tumor region by Optix MX2 at the indicated time points. […] Then, in vivo binding kinetics of the Dy681-labeled v6 peptides to the subcutaneous tumors were determined. […]
# L3.6pl cells [3] = assay: Staining of fixed L3.6pl cells with DY681-labeled peptides (confocal microscopy); type: binding, human; conditions: DY681-labeled peptide
# Experimental: as §2
# CD44v6 [4] = assay: HGF-induced activation of Met and ERK in L3.6pl cells (Western blot); type: cell-based, human
# Experimental: as §1
# To expand the studies to human pancreatic tumors, the highly metastatic human pancreatic carcinoma cells L3.6pl (Bruns, et al. Neoplasia (1999), 1(1):50-62) were investigated. These cells originate from the […] cells that have been passaged several times in the liver and the pancreas, a step that rendered them more and more metastatic. It was confirmed that Met is dependent on CD44v6 for its activation and signaling in these cells (FIG. 19A). The L3.6pl cells were treated with HGF in the presence or absence of a human v6 peptide of SEQ ID NO: 2 or SEQ ID NO:6 and Met activation and downstream signaling to ERK was measured. Phosphorylation of both Met and ERK was inhibited by the human v6 peptide. Treatment with a corresponding rat v6 peptide (ctrl peptide, SEQ ID NO: 10 or 11) had no influence on receptor activation and signal transduction (FIG. 19A).
# The contribution of CD44v6 to Met signaling in the human epithelial pancreatic cancer cells L3.6pl (derived from Colo 357), the cervix carcinoma cells HeLa and the colon cancer cells HT29 were analysed using the CD44v6 peptide (v6 14mer; v6 5mer tested as well, data not shown).
# L3.6pl tumors = assay: In vivo and ex vivo imaging (Pearl Imager) of mice with L3.6pl tumors; parameters: species or system mouse; conditions: 24 h after injection
# Experimental: In vivo imaging of the mice with the L3.6pl tumors was performed using the Pearl™ Imager (LI-COR Biosciences, Bad Homburg, Germany) The system uses two lasers (685 and 785 nm) for excitation and a charge-coupled device detector for signal detection. The laser excitation enables a deep tissue penetration. With the near-infrared detection a high sensitivity due to the reduced tissue auto-fluorescence is achieved. In order to standardize the images we made use of the Pearl Cam Software. The animals were fed with chlorophyll-reduced food to reduce the fluorescence background one week before imaging (Regime 210, safe-diets, Augy, France). Prior to imaging the mice were anesthetized with 2.0% isoflurane. Animals were placed on the heated plate of the imager and continuous delivery of isoflurane was achieved through a nose cone in the imaging drawer. Images were captured at white light, 700 and 800 nm Animals were imaged prior to i.v. peptide injection and 24 h after injection with either DY681-labeled human v6 peptide or DY681-labeled rat v6 peptide as control Immediately after each imaging session animals were killed, tumor, liver and spleen isolated and scanned ex vivo at white light, 700 and 800 nm.
# Then, the specificity of binding of the human CD44v6 peptide to the tumor in vivo was examined using the small animal imaging system Pearl Impulse. […]
# CD44v6 [5] = assay: Activation assay with pegylated peptides: HGF-induced Met and ERK activation in BSp73ASs6 cells; type: cell-based, rat
# Experimental: The PEG-control peptide and PEG-rat CD44v6 peptide were compared for their ability to block HGF induced activation of the receptor tyrosine kinase Met and ERK.
# Rat pancreatic cancer cells BSp73ASs6 (also designated Ass6) were incubated for 10 min at 37° C. with either ctrl-peptides (SEQ ID NO: 15), non-pegylated v6-peptides (SEQ ID NO: 11) and increasing concentrations of the pegylated peptides, namely PEG-rat control peptide and PEG-rat CD44v6 peptide, before induction with HGF (10 ng/ml; 5 min at 37° C.).
# Activation of ERK and Met was determined by standard SDS and Western Blotting techniques using a phospho-Met and phospho-Erk specific antibody (phospho-Met clone D16 cell signaling, phospho-Erk p42/44 cell signaling)
# HT29 colon cancer cells = assay: Scatter assay, HGF-induced HT29 colon cancer cells; type: cell-based, human; conditions: HGF 10 ng/ml, pre-incubated with peptide
# Experimental: A scatter assay was performed additionally. HT29 colon cancer cells were grown in medium containing 10% FCS. One day after seeding, the cells were starved. On the third day, the cells were induced with HGF (10 ng/ml) and pre-incubated with either no peptide, ctrl-peptides (SEQ ID NO: 15), non-pegylated v6-peptides (SEQ ID NO: 11) or the pegylated peptides, namely PEG-rat control peptide and PEG-rat CD44v6 peptide.
# L3.6pl cells [6] = assay: Human orthotopic pancreatic cancer model, L3.6pl cells in nude mice, treatment from day 7; type: in vivo, mouse; conditions: L3.6pl orthotopic model; 5mer instead of 14mer
# Experimental: In the case of the human orthotopic model, L3.6pl pancreatic carcinoma cells (passage 24-26) were suspended in Hank's balanced salt solution (Invitrogen, Karlsruhe, Germany) after trypsinization. The cells were injected orthotopically in the pancreas of male nude mice as described (Bruns C J et al. (1999) Neoplasia 1(1):50-62). Two groups of 15 mice each were injected i.p. 7 days later with either the human v6 peptide respectively rat control peptide (20 μg). For all experiments described and depicted herein either the rat 14mer control peptide or the human 14mer peptide were used. All experiments were then repeated with the rat 5mer control peptide or the human 5mer peptide (N-R-W-H-E, SEQ ID NO: 2). […] The injection was repeated three times per week for 21 days. Two days after the last treatment the animals were killed.
# 7 μm thick paraffin sections were deparaffinized and rehydrated. For P-Met staining antigen unmasking was achieved by boiling the slides in 1 mM EDTA pH 8.0 followed by incubation for 15 minutes at a sub-boiling temperature, for CD31 staining the sections were treated with Proteinase K (8 μg/ml) for […] at 37° C. For immunofluorescence staining of P-Met, unspecific binding was blocked with 5% goat serum (DAKO, Glostrup, Denmark) (diluted in 1×PBS/0.3% Triton X-100) for 60 minutes. In the case of immunohistochemistry, endogenous peroxidases were at first blocked with 3% H2O2 in PBS followed by incubation with biotin blocking system (Dako, Glostrup, Denmark) and then unspecific binding was inhibited by incubation with 5% FCS in PBS was used for blocking. The sections were incubated with the P-Met antibody (D26, dilution 1:50 in 1×PBS/1% BSA/0.3% Triton X-100), Met antibody (C-28, dilution 1:50), GFP antibody (sc-101525, dilution 1:50) or CD31 antibody (5 μg/ml) over night or VFF18 (5 μg/ml) o/n at 4° C. After washing in PBS the sections were incubated with Alexa Fluor R 546 goat anti-rabbit (in case of immunofluorescence P-Met and Met staining, dilution 1:500) or a biotinylated secondary antibody (for immunohistochemical stainings rabbit anti-rat antibody for VFF18 and CD31, goat anti-rabbit for P-Met, cleaved Caspase-3 and cleaved Caspase-8 and rabbit anti-mouse for GFP, dilution 1:500) for 45 minutes. For DAB staining the sections were treated with a streptavidin-peroxidase conjugate (Dako, Glostrup, Denmark) and developed with DAB (3,3′-diaminobenzidine) substrate system (3,3′-diaminobenzidine; Biozol, Eching, Germany) For immunofluorescence DAPI was used for nuclear staining.
# To test the effect of the peptide on tumor growth and metastasis formation the L3.6pl cells were orthotopically injected into the pancreas of immunosuppressed mice (NCI-nu). […] The primary tumor expresses a high amount of CD44v6 (FIG. 19B). […] Indeed, human HGF in a concentration of 3375 pg/ml was detected in the supernatant (see Material and Methods) after 5 days of culture (data not shown).
# BSp73ASs6 cells [7] = assay: Rat syngeneic model, subcutaneous BSp73ASs6 tumors, treatment from one week (metastasis formation); type: in vivo; conditions: rats, s.c. BSp73ASs6
# Experimental: In the case of the rat syngeneic model, 1×10^6 pancreatic cells (BSp73AS and its transfectants) were subcutaneously injected into the right posterior flank of the animals. Tumors developed for four weeks. During this time period animals injected with BSp73ASs6 cells expressing Met-shRNA or control-shRNA received doxycycline in the drinking water. At the end of the experiment, primary tumors were isolated. Lungs and axillary lymph nodes were analyzed. The tissues were incubated for 24 h in a zinc-fixative (0.5 g calcium acetate, 5.0 g zinc acetate, 5.0 g zinc chloride, in 1 L 0.1 M Tris pH 7.4) and embedded in paraffin for further analysis. In case of peptide or antibody treatment tumors developed for one week before the first treatment. Where indicated, animals received 200 μg of peptide or antibody per injection three times per week for four weeks. Tumor growth was monitored weekly using a caliper Animals were killed at day 28 or 30 after start of the treatment.
# For histomorphological analysis paraffin-embedded sections of lungs were stained with hematoxylin and eosin and periodic acid-Schiff (H&E or PAS). Serial sections of the whole tissue blocks were examined by analyzing slices every 20 μm; in each slice, the presence and the extension of the metastatic deposit was assessed, according to the procedure routinely used by pathologists to evaluate the presence of micrometastases.
# Rat peptides had the sequences KEKWFENEWQGKNP (SEQ ID NO: 10) and NEWQG (SEQ ID NO: 11). BSp73ASs6 cells were subcutaneously injected into syngeneic rats and rat CD44v6 peptides of SEQ ID NO: 10 or SEQ ID NO: 11 (or mouse control peptides) or the CD44v6 antibody (or IgGs as a control) were injected intra-tumoral or intravenously three times a week. […] This is compatible with the fact that also BSp73AS cells or BSp73ASv1-10Δv6 cells can induce the formation of primary tumors similarly to the v6 transfectants.
# [8] = peptide 10 min 37° C., HGF 10 ng/ml 5 min
# [9] = peptide before induction with 10 ng/ml HGF
substance,measurement,setting,value
"WFENEWQGKNP (also: DY681 fluorescent dye label) [rv6 pep Dy681, rat 11mer labeled with the fluorescent dye DY681]",Met activation (HGF-induced) with DY681-labeled peptides,CD44v6 [1],inhibited Met activation
same,Binding to BSp73ASs6 cells in tissue culture,BSp73ASs6 cells [2],bound to BSp73ASs6 cells
same,Ex vivo fluorescence in excised tumors and lungs,BSp73ASs6 tumors,Fluorescence intensities could only be detected in tumors and in specific areas of the lungs
same,Binding to L3.6pl cells in cell culture,L3.6pl cells [3],not
"WFGNRWHEGYR (also: DY681 fluorescent dye label) [labeled human v6 peptide, human 11mer labeled with the fluorescent dye DY681]",Met activation (HGF-induced) with DY681-labeled peptides,"CD44v6 [4]; FIG. 20A right side, activation of Erk determined",inhibited Met activation
same,Binding to L3.6pl cells in cell culture,L3.6pl cells [3],bound to these cells in cell culture
same,"Ex vivo fluorescence of isolated organs (tumor, liver, spleen)",L3.6pl tumors; mice with L3.6pl tumors,binding not only to primary tumors but also to areas of the liver
same,Accumulation of fluorescence in the tumor in vivo,"L3.6pl tumors; mice with orthotopic L3.6pl tumors, 20 μg i.v.",accumulated specifically in the tumor
"PEG-NEWQG ({MeO‑PEG‑COOH}-NEWQG; also: PEG 750 or 2000 Da) [PEG-rat CD44v6 peptide, rat 5mer NEWQG coupled to MeO-PEG-COOH (750 Da and 2000 Da)]","Efficiency of inhibition of ERK, pegylated vs. non-pegylated peptides",CD44v6 [5]; HGF 10 ng/ml,even more efficient
same,HGF dependent activation of ERK,CD44v6 [5]; [8],efficient in inhibiting
same,HGF dependent activation of Met,CD44v6 [5]; [8],efficient in inhibiting
same,Dissociation and migration of cells away from cell cluster (scatter),HT29 colon cancer cells,lead to dissociation and migration of cells away from these cell cluster
"NEWQG [SEQ ID NO: 11, rat CD44v6 5mer peptide]",HGF-induced phosphorylation/activation of ERK,CD44v6 [4]; [9],no influence
same,HGF-induced phosphorylation/activation of Met,CD44v6 [4]; [9],no influence
same,"Outcome of all experiments repeated with 5mer peptides, compared with 14mer",L3.6pl cells [6],same results as for the 14mer peptides
same,Metastasis (axillary lymph nodes and lungs),"BSp73ASs6 cells [7]; 200 μg per injection i.t. or i.v., three times a week, four weeks, start after one week",completely inhibited metastasis
same,Metastasis and micro-metastasis in lung sections (PAS and H&E histology),BSp73ASs6 cells [7]; 200 μg three times a week,no metastasis nor micro-metastasis could be detected
same,Outgrowth of primary tumors,BSp73ASs6 cells [7]; treatment for 28 days,not influenced
same,Dissociation and migration of cells away from cell cluster (scatter),HT29 colon cancer cells,lead to dissociation and migration of cells away from these cell cluster
